Patent US20070066672A1, “Benzimidazole derivatives and use thereof as peptide deformylase inhibitors” (Arpida A/S, priority 2003, published 2007)

Assays:
[1] = target: T1, Peptide Deformylase (PDF) (Escherichia coli, UniProt P0A6K3); test: Bacterial peptide deformylase (PDF) assay, colorimetric cell free, enzyme from E. coli; format: biochemical
T1 construct: made in house
Description: (§1) To find inhibitors of Peptide Deformylase (PDF), a colorimetric cell free assay for measuring the enzymatic activity of PDF has been adapted to the microtiter plate format (96 wells). The assay comprises three components, purified PDF, f-Met-Ala as substrate and TNBS as the detecting agent of primary amino groups. The resulting TNP_NH-Met-Ala sulfite complex can be detected at 420 nm. PDF enzymes, containing Fe^2+ as the native metal, are purified and are stabilized by the addition of tris(2-carboxyethyl)phosphine (TCEP).
(§2) The IC50 value of a compound of the invention as a bacterial PDF inhibitor was determined using the following assay.
(§3) Assay buffer 0.1 M MOPS pH was adjusted to 7.2 with NaOH, containing 0.25 M NaCl, 100 μg/mL catalase and 1 mg/mL BSA.
(§4) E. coli enzyme (2.5 mg/ml) 10 μl+290 μl Assay buffer, 1 μl per ml enzyme mix. S. aureus (15 mg/ml) 10 μl+990 μl Assay buffer, 0.3 μl per ml enzyme mix.
(§5) Substrate mix: 10 mM f-Met-Ala was made up from 200 mM f-Met-Ala in methanol with assay buffer.
(§6) TNBS solution: Freshly dilute 1 M TNBS stock solution diluted 1:10 with water.
(§7) Buffer C: 0.5 M borate buffer adjusted to pH 9.5 with NaOH.
(§8) Buffer D: 0.2 ml of freshly prepared 0.5 M Na2SO3 was mixed with 9.8 mL of 0.5M NaH2PO4.
(§9) Inhibitor solution: 2 mM Sodium 4-(hydroxymercurio)benzoate in assay buffer.
(§10) Compound mix: Compound of formula I dissolved in DMSO in a 10 mg/mL stock solution. Further dilutions were made in DMSO in the concentration range between 0.05 to 100 mM.
(§11) The assay was performed in a 96 Microtiter plate containing test compound. To each well containing test compound mix was added 75 microliter of enzyme mix from E. coli followed by the addition of 25 microliter of substrate mix. The resulting mix was incubated for 30 minutes at room temperature with shaking. TNBS solution (50 microliter/well) was added and the resulting mixture was incubated for 15 minutes under shaking. Buffer C was then added (20 microliter/well). After incubating at room temperature for 15 minutes under shaking, buffer D was added (50 microliter/well). The optical […] was then measured at 420 nm, thereby determining the IC50 value.

[2] = target: T2, Peptide Deformylase (PDF) (Staphylococcus aureus, UniProt P68826); test: Bacterial peptide deformylase (PDF) assay, colorimetric cell free, enzyme from S. aureus; format: biochemical; conditions: f-Met-Ala substrate, TNBS detection at 420 nm
T2 construct: made in house
T2 sequence (P68826 1-183): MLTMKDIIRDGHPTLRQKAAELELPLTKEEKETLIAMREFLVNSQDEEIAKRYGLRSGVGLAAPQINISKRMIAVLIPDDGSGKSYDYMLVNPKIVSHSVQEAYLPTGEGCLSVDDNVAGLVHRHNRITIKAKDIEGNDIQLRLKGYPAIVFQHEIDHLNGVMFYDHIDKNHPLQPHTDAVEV
Description: as §1, §2, §3, §4, §5, §6, §7, §8, §9, §10, §11
The assay was repeated using enzyme mix from S. aureus.

T1 sequence (P0A6K3 whole entry): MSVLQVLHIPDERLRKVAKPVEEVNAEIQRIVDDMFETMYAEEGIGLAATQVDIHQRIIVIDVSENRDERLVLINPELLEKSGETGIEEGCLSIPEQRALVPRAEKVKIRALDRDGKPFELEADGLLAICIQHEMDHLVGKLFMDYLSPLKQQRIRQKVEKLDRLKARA

SMILES: COC(=O)CNC(=O)c1ccc2c(c1)nc(C(CCSC)NC(=O)CCC(=O)O)n2C1CC1 (stereo not drawn) [Example 16, N-{1-[1-Cyclopropyl-5-(methoxycarbonylmethyl-carbamoyl)-1H-benzoimidazol-2-yl]-3-methylsulfanyl-propyl}-succinamic acid]
- IC50 [1]: 47.2 µM
- IC50 [2]: 17.6 µM

SMILES: COC(=O)CNC(=O)c1ccc2c(c1)nc(C(Cc1cccc3ccccc13)NC(=O)CCC(=O)O)n2CCc1cccs1 (stereo not drawn) [Example 17, N-{1-[5-(Methoxycarbonylmethyl-carbamoyl)-1-(2-thiophen-2-yl-ethyl)-1H-benzoimidazol-2-yl]-2-naphthalen-1-yl-ethyl}-succinamic acid]
- IC50 [1]: 0.071 µM
- IC50 [2]: 0.099 µM

SMILES: CCCCn1c(C(Cc2cccc3ccccc23)NC(=O)CCC(=O)O)nc2cc(C(=O)NCC(=O)OC)ccc21 (stereo not drawn) [Example 18]
- IC50 [1]: 2.7 µM
- IC50 [2]: 0.074 µM

SMILES: COC(=O)CNC(=O)c1ccc2c(c1)nc(C(CCCCN)NC(=O)CCS)n2CC1CCCCC1 (stereo not drawn) [Example 19, ({2-[5-Amino-1-(3-mercapto-propionylamino)-pentyl]-1-cyclohexylmethyl-1H-benzoimidazole-5-carbonyl}-amino)-acetic acid methyl ester]
- IC50 [1]: 38.1 µM
- IC50 [2]: 27.1 µM

SMILES: COC(=O)CNC(=O)c1ccc2c(c1)nc(C(Cc1ccc(O)cc1)NC(=O)CCS)n2C1CC1 (stereo not drawn) [Example 20, ({1-Cyclopropyl-2-[2-(4-hydroxy-phenyl)-1-(3-mercapto-propionylamino)-ethyl]-1H-benzoimidazole-5-carbonyl}-amino)-acetic acid methyl ester]
- IC50 [1]: > 200 µM
- IC50 [2]: > 200 µM

SMILES: COC(=O)CNC(=O)c1ccc2c(c1)nc(C(Cc1ccc(O)cc1)NC(=O)CCS)n2CC1CCCCC1 (stereo not drawn) [Example 21, ({1-Cyclohexylmethyl-2-[2-(4-hydroxy-phenyl)-1-(3-mercapto-propionylamino)-ethyl]-1H-benzoimidazole-5-carbonyl}-amino)-acetic acid methyl ester]
- IC50 [1]: > 200 µM
- IC50 [2]: > 200 µM

SMILES: COC(=O)CNC(=O)c1ccc2c(c1)nc(C(Cc1ccccc1)NC(=O)CCS)n2CCO (stereo not drawn) [Example 22, ({1-(2-Hydroxy-ethyl)-2-[1-(3-mercapto-propionylamino)-2-phenyl-ethyl]-1H-benzoimidazole-5-carbonyl}-amino)-acetic acid methyl ester]
- IC50 [1]: > 200 µM
- IC50 [2]: > 200 µM

SMILES: COC(=O)CNC(=O)c1ccc2c(c1)nc(C(CCCCN)NC(=O)CCC(=O)O)n2CC1CCCCC1 (stereo not drawn) [Example 24, N-{5-Amino-1-[1-cyclohexylmethyl-5-(methoxycarbonylmethyl-carbamoyl)-1H-benzoimidazol-2-yl]-pentyl}-succinamic acid]
- IC50 [1]: 13.1 µM
- IC50 [2]: 1.4 µM

SMILES: COC(=O)CNC(=O)c1ccc2c(c1)nc(C(Cc1ccc(O)cc1)NC(=O)CCC(=O)O)n2C1CC1 (stereo not drawn) [Example 25, N-[1-[1-Cyclopropyl-5-(methoxycarbonylmethyl-carbamoyl)-1H-benzoimidazol-2-yl]-2-(4-hydroxyphenyl)-ethyl]-succinamic acid]
- IC50 [1]: 12.8 µM
- IC50 [2]: 28.3 µM

SMILES: COC(=O)CNC(=O)c1ccc2c(c1)nc(C(Cc1ccc(O)cc1)NC(=O)CCC(=O)O)n2CC1CCCCC1 (stereo not drawn) [Example 26, N-[1-[1-Cyclohexylmethyl-5-(methoxycarbonylmethyl-carbamoyl)-1H-benzoimidazol-2-yl]-2-(4-hydroxyphenyl)-ethyl]-succinamic acid]
- IC50 [1]: 35.2 µM
- IC50 [2]: 25 µM

SMILES: COC(=O)CNC(=O)c1ccc2c(c1)nc(C(Cc1ccccc1)NC(=O)CCC(=O)O)n2CCO (stereo not drawn) [Example 27, N-{1-[1-(2-Hydroxy-ethyl)-5-(methoxycarbonylmethyl-carbamoyl)-1H-benzoimidazol-2-yl]-2-phenyl-ethyl}-succinamic acid]
- IC50 [1]: 41.8 µM
- IC50 [2]: 27.7 µM

SMILES: COC(=O)CNC(=O)c1ccc2c(c1)nc(C(CC(C)C)NC(=O)CCC(=O)O)n2CCO (stereo not drawn) [Example 28, N-{1-[1-(2-Hydroxy-ethyl)-5-(methoxycarbonylmethyl-carbamoyl)-1H-benzoimidazol-2-yl]-3-methylbutyl}-succinamic acid]
- IC50 [1]: > 200 µM
- IC50 [2]: 34.4 µM

SMILES: CCC(NC(=O)CCC(=O)NO)c1nc2cc(C(=O)NCC(=O)OC)ccc2n1C1CC1 (stereo not drawn) [Example 29, ({1-Cyclopropyl-2-[1-(3-hydroxycarbamoyl-propionylamino)-propyl]-1H-benzoimidazole-5-carbonyl}-amino)-acetic acid methyl ester]
- IC50 [1]: 0.079 µM
- IC50 [2]: 0.105 µM

SMILES: CCC(NC(=O)CCC(=O)NO)c1nc2cc(C(=O)NCC(=O)OC)ccc2n1Cc1ccco1 (stereo not drawn) [Example 31, ({1-Furan-2-ylmethyl-2-[1-(3-hydroxycarbamoyl-propionylamino)-propyl]-1H-benzoimidazole-5-carbonyl}-amino)-acetic acid methyl ester]
- IC50 [1]: 0.098 µM
- IC50 [2]: 0.151 µM

SMILES: CCC(NC(=O)CCC(=O)NO)c1nc2cc(C(=O)NCC(=O)OC)ccc2n1Cc1ccccc1 (stereo not drawn) [Example 32, ({1-Benzyl-2-[1-(3-hydroxycarbamoyl-propionylamino)-propyl]-1H-benzoimidazole-5-carbonyl}-amino)-acetic acid methyl ester]
- IC50 [1]: 0.045 µM
- IC50 [2]: 0.067 µM

SMILES: COC(=O)CNC(=O)c1ccc2c(c1)nc(C(CCSC)NC(=O)CCC(=O)NO)n2Cc1ccccc1 (stereo not drawn) [Example 38]
- IC50 [1]: 25.8 µM
- IC50 [2]: 3.5 µM

SMILES: COC(=O)CNC(=O)c1ccc2c(c1)nc(C(Cc1ccccc1)NC(=O)CCC(=O)NO)n2Cc1ccc(Cl)cc1 (stereo not drawn) [Example 40, ({1-(4-Chloro-benzyl)-2-[1-(3-hydroxycarbamoyl-propionylamino)-2-phenyl-ethyl]-1H-benzoimidazole-5-carbonyl}-amino)-acetic acid methyl ester]
- IC50 [1]: 1.4 µM
- IC50 [2]: 0.021 µM

SMILES: COC(=O)CNC(=O)c1ccc2c(c1)nc(C(CCc1ccccc1)NC(=O)CCC(=O)NO)n2C1CC1 (stereo not drawn) [Example 41, ({1-Cyclopropyl-2-[1-(3-hydroxycarbamoyl-propionylamino)-3-phenyl-propyl]-1H-benzoimidazole-5-carbonyl}-amino)-acetic acid methyl ester]
- IC50 [1]: 2.3 µM
- IC50 [2]: 0.363 µM

SMILES: COC(=O)CNC(=O)c1ccc2c(c1)nc(C(Cc1cccc3ccccc13)NC(=O)CCC(=O)NO)n2Cc1ccccc1 (stereo not drawn) [Example 46, ({1-Benzyl-2-[1-(3-hydroxycarbamoyl-propionylamino)-2-naphthalen-1-yl-ethyl]-1H-benzoimidazole-5-carbonyl}-amino)-acetic acid methyl ester]
- IC50 [1]: 6.5 µM
- IC50 [2]: 0.9 µM

SMILES: CCCCn1c(C(Cc2ccccc2)NC(=O)CCC(=O)NO)nc2cc(C(=O)NCC(=O)OC)ccc21 (stereo not drawn) [Example 47, ({1-Butyl-2-[1-(3-hydroxycarbamoyl-propionylamino)-2-phenyl-ethyl]-1H-benzoimidazole-5-carbonyl}-amino)-acetic acid methyl ester]
- IC50 [1]: 5.3 µM
- IC50 [2]: 0.019 µM

SMILES: COC(=O)CNC(=O)c1ccc2c(c1)nc(C(CCCCN)NC(=O)CCS)n2C1CC1 (stereo not drawn) [Example 48, ({2-[5-Amino-1-(3-mercapto-propionylamino)-pentyl]-1-cyclopropyl-1H-benzoimidazole-5-carbonyl}-amino)-acetic acid methyl ester]
- IC50 [1]: 3.6 µM
- IC50 [2]: 2 µM
